≈ marks a conversion by molar mass, not a printed value.
Experiments:
H. pylori ATCC 43504 = experiment: NCCLS agar dilution MIC, control antibiotics against quality control strain; type: cell-based; conditions: Helicobacter pylori, ATCC43504, read at 72 hours
Source text: (§1) The aim of the present invention is to evaluate the susceptibility of H. pylori to the new fluoroquinolone gemifloxacin (SB-265805). Twenty-one (21) H. pylori strains were obtained, including 16 clinical isolates CCUG 39297, CCUG 30988 (Lelwala-Guruge, J., Ljungh, A., & Wadstrom, T. 1992. APMIS 100, 908-13), CCUG 17875 (Lelwala-Guruge, J., Ljungh, A., & Wadstrom, T. 1992. APMIS 100, 908-13; Ilver, D., Arnqvist, A., Ogren, J., Frick, I. M., Kersulyte, D., Incecik, E. T. et al. 1998. Science 279, 373-7), CCUG 38771, CCUG 15818, CCUG 17874 (Lelwala-Guruge, J., Ljungh, A., & Wadstrom, T. 1992. APMIS 100, 908-13; O'Toole, P. W., Logan, S. M., Kostrzynska, M., Wadström, T., & Trust, T. J. 1991. Journal of Bacteriology 173, 505-513), CCUG 19087, CCUG 30987 (Lelwala-Guruge, J., Ljungh, A., & Wadstrom, T. 1992. APMIS 100, 908-13), CCUG 38772, CCUG 18943, CCUG 18295, CCUG 36718, CCUG 36719, CCUG 35899, CCUG 36720, CCUG 39924; and laboratory strains Not18, Not34, ATCC 43504, SS1, and ATCC 700392/26695. These strains include gastric biopsy isolates from the USA, Sweden, France, Belgium, UK, South Africa, and Australia Two of the clinical isolates are reported to have the cagA^+ genotype (strains CCUG 17874 and CCUG 17875) and three to be cagA^− (strains CCUG 36720, CCUG 36719, and CCUG 30988), but the cag genotype of the rest is unknown. […] The activities of amoxycillin, tetracycline and metronidazole against H. pylori ATCC 43504 were also tested as controls. The agar plates were inoculated using a Steers replicator and read at 72 hours.

H. pylori = experiment: NCCLS agar dilution MIC, 21 H. pylori strains; type: cell-based, Helicobacter pylori; conditions: 21 isolates of H. pylori, read at 72 hours; for MIC50 / MIC90: Helicobacter pylori
Source text: as §1

MIC (H. pylori ATCC 43504) [µg/mL]	MIC Range (H. pylori) [µg/mL]	MIC50 (H. pylori) [µg/mL]	MIC90 (H. pylori) [µg/mL]	Compound
256 (≈ 1500 µM)	–	–	–	Cc1ncc([N+](=O)[O-])n1CCO [metronidazole]
–	0.03 to 1.0	0.06 (≈ 0.154 µM)	0.13 (≈ 0.334 µM)	CO/N=C1\CN(c2nc3c(cc2F)c(=O)c(C(=O)O)cn3C2CC2)CC1CN (racemic) [Gemifloxacin, (R,S)-7-(3-aminomethyl-4-methoxyiminopyrrolidin-1-yl)-1-cyclopropyl-6-fluoro-4-oxo-1,4-dihydro-1,8-naphthyridine-3-carboxylic acid]
–	0.03 to 0.5	0.13 (≈ 0.346 µM)	0.13 (≈ 0.346 µM)	COc1c(N2CCNC(C)C2)c(F)cc2c(=O)c(C(=O)O)cn(C3CC3)c12 (stereo not drawn) [Gatifloxacin]
–	0.13 to 2.0	0.25 (≈ 0.692 µM)	0.5 (≈ 1.38 µM)	C[C@H]1COc2c(N3CCN(C)CC3)c(F)cc3c(=O)c(C(=O)O)cn1c23 [Levofloxacin]
–	0.13 to 2.0	0.25 (≈ 0.623 µM)	0.5 (≈ 1.25 µM)	COc1c(N2C[C@@H]3CCCN[C@@H]3C2)c(F)cc2c(=O)c(C(=O)O)cn(C3CC3)c12 [Moxifloxacin]
0.06 (≈ 0.164 µM)	–	–	–	CC1(C)S[C@@H]2[C@H](NC(=O)[C@H](N)c3ccc(O)cc3)C(=O)N2[C@H]1C(=O)O [amoxycillin]

Compound	MIC (H. pylori ATCC 43504) [µg/mL]	MIC Range (H. pylori) [µg/mL]	MIC50 (H. pylori) [µg/mL]	MIC90 (H. pylori) [µg/mL]
CN(C)[C@@H]1C(O)=C(C(N)=O)C(=O)[C@@]2(O)C(O)=C3C(=O)c4c(O)cccc4[C@@](C)(O)[C@H]3C[C@@H]12 [tetracycline]	1 (≈ 2.25 µM)	–	–	–
